Results from patent US9409952B2, “Peptide-compound cyclization method” (Chugai Seiyaku Kabushiki Kaisha, priority 2011, dated 2016).
Where two headings read alike, the source gives them in different places. Starred links: 1 amine or outer side, 2 acyl side, 3 side chain; linkers in the order of their positions; H or OH if unused. Positions of bridges follow the written chain, without caps; N, C: chain ends. Non-standard residues stand in square brackets, D forms with d. Residues, ends and D or L forms follow the SMILES beside them. *: point of attachment. Phe(3-(CH2)4CO) = O=C([C@H](Cc1cccc(CCCCC(=O)[*:3])c1)N[*:1])[*:2]; NMePhe(3-Cl) = CN[C@@H](Cc1cccc(Cl)c1)C(=O)O; NMeF = CN[C@@H](Cc1ccccc1)C(=O)O; NMeI = CC[C@H](C)[C@H](NC)C(=O)O; NMeβAla = CN(CCC(=O)[*:2])[*:1]; NMeL = CN[C@@H](CC(C)C)C(=O)O; NMeV = CN[C@H](C(=O)O)C(C)C; NMeA = CN[C@@H](C)C(=O)O; Piperidide = C1CCN(*)CC1; dNMeA = CN[C@H](C)C(=O)O; β3hA = C[C@H](N)CC(=O)O; NPrGly = CCCNCC(=O)O; Sar = CNCC(=O)O; tBu = CC(C)(C)*

How the values were obtained:
[1] = Metabolic stability in human hepatic microsome; type: in vitro ADME; conditions: microsomes
[2] = PAMPA (parallel artificial membrane permeability assay); type: in vitro ADME; conditions: for Papp at 18 hours, 50 µM: PAMPA
How it was run: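 Artificial membrane was 10% (w/v) egg lecithin plus 0.5% (w/v) cholesterol in dodecane on a PVDF filter. A 10 mM DMSO stock was added at 0.5% (v/v) to donor buffer (50 mM MOPSO, pH 6.5, 5.0% glycocholic acid). After 18 h at 37 °C, LC/MS or LC/UV gave donor and acceptor levels for Pe.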

[3] = pH 7.4, human hepatic microsome, NADPH(+), read-out: CL NADPH(+)
[4] = membrane permeation rate (Pe), 50 mM MOPSO buffer pH 6.5 with 5.0% glycocholic acid, 37° C., 18 hours, read-out: iPAMPA Pe
[5] = membrane permeation rate (Pe), 50 mM MOPSO buffer pH 6.5 with 5.0% glycocholic acid, 37° C., 18 hours

Structure (SMILES) | microsomal CLint at 1 uM [1, 3] [µL/min/mg] | Papp at 18 hours, 50 µM [2, 4] [×10⁻⁶ cm/s] | iPAMPA Pe [2, 5] | microsomal CLint at 1 uM ([1]; human, pH 7.4, CL NADPH(+)) [µL/min/mg] | Papp at 18 hours, 50 µM ([2]; pH 6.5) [×10⁻⁶ cm/s]
CC(C)C[C@@H]1NC(=O)[C@H](CC(C)C)N(C)C(=O)[C@H](C)N(C)C(=O)[C@@H](C)N(C)C(=O)C[C@@H](C(=O)N2CCCCC2)NC(=O)[C@H]([C@@H](C)O)NC(=O)CN(C)C(=O)[C@H](Cc2ccccc2)NC(=O)[C@H](CC(C)C)N(C)C(=O)[C@H](C(C)C)N(C)C(=O)[C@H](Cc2ccccc2)N(C)C1=O [DP-165] ([dNMeA][NMeA][NMeL]L[NMeF][NMeV][NMeL]F[Sar]TD-Piperidide; lactam N-11) | 42 | 56 |  |  | 
CC[C@H](C)[C@@H]1NC(=O)CCCCc2cccc(c2)C[C@@H](C(=O)N2CCCCC2)NC(=O)[C@H](Cc2ccccc2)N(C)C(=O)[C@H](CC(C)C)N(C)C(=O)CN(C)C(=O)[C@H]([C@@H](C)O)NC(=O)[C@H](C)N(C)C(=O)[C@H](C(C)C)N(C)C(=O)[C@H](C)NC(=O)[C@H](CC(C)C)N(C)C(=O)[C@H](Cc2ccccc2)N(C)C1=O [DP-886] (I[NMeF][NMeL]A[NMeV][NMeA]T[Sar][NMeL][NMeF][Phe(3-(CH2)4CO)]-Piperidide; lactam N-11) | 162 | 22 |  |  | 
CC(C)C[C@H]1C(=O)N(C)[C@@H](Cc2ccccc2)C(=O)N[C@H](C(=O)N2CCCCC2)CC(=O)N[C@H](C(C)C)C(=O)N[C@@H](C)C(=O)N[C@@H]([C@@H](C)O)C(=O)N(C)[C@@H](C)C(=O)N[C@@H](Cc2ccccc2)C(=O)N1C [DP-526] ([dV]AT[NMeA]F[NMeL][NMeF]D-Piperidide; lactam N-8) | 49 | 14 |  |  | 
CC[C@H](C)[C@@H]1NC(=O)[C@H](CC(C)C)N(C)C(=O)CN(C)C(=O)[C@H]([C@@H](C)O)NC(=O)[C@H](C)N(C)C(=O)C[C@@H](C(=O)N[C@@H](C)C(=O)N2CCCCC2)NC(=O)[C@H](CC(C)C)N(C)C(=O)[C@H](Cc2ccccc2)N(C)C(=O)[C@H](CC(C)C)N(C)C1=O [DP-664] ([NMeA]T[Sar][NMeL]I[NMeL][NMeF][NMeL]DA-Piperidide; lactam N-9) | 304 |  | 7.0E−05 |  | 
CC[C@H](C)[C@H]1C(=O)NCC(=O)N[C@@H](C)CC(=O)N(C)[C@H](C)C(=O)N[C@@H](Cc2ccccc2)C(=O)N(C)[C@@H](CC(C)C)C(=O)N[C@@H](COC(C)(C)C)C(=O)N[C@@H](Cc2ccccc2)C(=O)N2CCC[C@H]2C(=O)N[C@@H]([C@@H](C)O)C(=O)N[C@@H](CC(C)C)C(=O)N(C)[C@@H](C)C(=O)N1C [DP-754] (cyclo(F[NMeL]S(tBu)FPTL[NMeA][NMeI]G[β3hA][dNMeA])) |  |  |  | 41 | 32
CC(C)C[C@H]1C(=O)N[C@H](C(=O)N(C)[C@@H](Cc2ccccc2)C(=O)N(C)[C@@H](Cc2ccccc2)C(=O)N[C@@H](C)C(=O)N2CCCCC2)CC(=O)N[C@@H](C)C(=O)N(C)[C@@H](Cc2ccccc2)C(=O)N(C)[C@@H](CC(C)C)C(=O)N[C@@H]([C@@H](C)O)C(=O)N(C)[C@@H](C)C(=O)N(C)[C@@H](CC(C)C)C(=O)N[C@@H](C(C)C)C(=O)N1C [DP-208] (A[NMeF][NMeL]T[NMeA][NMeL]V[NMeL]D[NMeF][NMeF]A-Piperidide; lactam N-9) | 34 | 27 |  |  | 
CC[C@H](C)[C@H](NC(=O)[C@H](CC(C)C)NC(=O)[C@H](CC(C)C)N(C)C(=O)[C@H](Cc1cccc(Cl)c1)N(C)C(=O)[C@@H](NC(=O)[C@@H]1CC(=O)N[C@@H](Cc2ccccc2)C(=O)N[C@@H]([C@@H](C)O)C(=O)N[C@@H](CC(C)C)C(=O)N(C)[C@@H](CC(C)C)C(=O)N(C)[C@@H](C)C(=O)N(C)[C@@H](CC(C)C)C(=O)N1)[C@@H](C)CC)C(=O)N1CCCCC1 [DP-914] (FTL[NMeL][NMeA][NMeL]DI[NMePhe(3-Cl)][NMeL]LI-Piperidide; lactam N-7) | 29 |  | 1.0E−07 |  | 
CC[C@H](C)[C@@H]1NC(=O)[C@H](Cc2ccccc2)N(C)C(=O)[C@H](Cc2ccccc2)NC(=O)[C@H](CC(C)C)N(C)C(=O)[C@H](C(C)C)NC(=O)[C@H](CC(C)C)NC(=O)CCCCc2cccc(c2)C[C@@H](C(=O)N2CCCCC2)NC(=O)[C@H]([C@@H](C)O)NC(=O)[C@H](CC(C)C)NC(=O)[C@H](C)N(C)C1=O [DP-894] (LV[NMeL]F[NMeF]I[NMeA]LT[Phe(3-(CH2)4CO)]-Piperidide; lactam N-10) | 71 | 0.46 |  |  | 
CC[C@H](C)[C@H]1C(=O)N(C)[C@@H](CC(C)C)C(=O)N[C@H](C(=O)N2CCCCC2)Cc2cccc(c2)CCCCC(=O)N[C@@H]([C@@H](C)O)C(=O)N(C)[C@@H](C)C(=O)N(C)[C@@H](Cc2ccccc2)C(=O)N(C)[C@@H](Cc2ccccc2)C(=O)N(C)[C@@H](CC(C)C)C(=O)NCC(=O)N1C [DP-840] (T[NMeA][NMeF][NMeF][NMeL]G[NMeI][NMeL][Phe(3-(CH2)4CO)]-Piperidide; lactam N-9) | 357 | 64 |  |  | 
CC(C)C[C@H]1C(=O)N(C)[C@@H](CC(C)C)C(=O)N(C)[C@@H](Cc2ccccc2)C(=O)N[C@H](C(=O)N2CCCCC2)CC(=O)N[C@@H](C(C)C)C(=O)N(C)CC(=O)N[C@@H]([C@@H](C)O)C(=O)N1C [DP-719] (V[Sar]T[NMeL][NMeL][NMeF]D-Piperidide; lactam N-7) | 218 | 26 |  |  | 
CC[C@H](C)[C@H]1C(=O)N[C@@H](CC(C)C)C(=O)N(C)[C@@H](CC(C)C)C(=O)N[C@@H](COC(C)(C)C)C(=O)N(C)[C@@H](CC(C)C)C(=O)N[C@@H](C)CC(=O)N(C)CCC(=O)N[C@@H](Cc2ccccc2)C(=O)N(C)[C@@H](Cc2ccccc2)C(=O)N(C)[C@@H](CC(C)C)C(=O)N[C@@H]([C@@H](C)O)C(=O)N(C)[C@@H](C)C(=O)N1C [DP-758] (cyclo(F[NMeF][NMeL]T[NMeA][NMeI]L[NMeL]S(tBu)[NMeL][β3hA][NMeβAla])) |  |  |  | 59 | 24
CC(C)C[C@@H]1NC(=O)[C@H](CC(C)C)N(C)C(=O)[C@H](C)N(C)C(=O)C[C@@H](C(=O)N2CCCCC2)NC(=O)[C@H](CC(C)C)N(C)C(=O)[C@H](Cc2ccccc2)N(C)C(=O)[C@H](Cc2ccccc2)N(C)C(=O)[C@H]([C@@H](C)O)NC(=O)[C@H](Cc2ccccc2)N(C)C1=O [DP-442] ([NMeA][NMeL]L[NMeF]T[NMeF][NMeF][NMeL]D-Piperidide; lactam N-9) | 159 | 38 |  |  | 
CC(C)C[C@H]1C(=O)N(C)[C@@H](C)C(=O)N(C)[C@@H](Cc2ccccc2)C(=O)N[C@@H]([C@@H](C)O)C(=O)N(C)CC(=O)N(C)[C@@H](Cc2ccccc2)C(=O)N(C)[C@@H](CC(C)C)C(=O)N[C@@H](C)C(=O)N[C@H](C(=O)N2CCCCC2)CC(=O)N(C)[C@@H](C)C(=O)N(C)[C@@H](C)C(=O)N1C [DP-482] ([NMeA][NMeA][NMeL][NMeA][NMeF]T[Sar][NMeF][NMeL]AD-Piperidide; lactam N-11) | 11 | 3.7 |  |  | 
CC(C)C[C@@H]1NC(=O)C[C@@H](C(=O)N2CCCCC2)NC(=O)[C@H](CC(C)C)N(C)C(=O)[C@H](CC(C)C)NC(=O)[C@H](CC(C)C)N(C)C(=O)[C@H]([C@@H](C)O)NC(=O)CN(C)C1=O [DP-726] (L[Sar]T[NMeL]L[NMeL]D-Piperidide; lactam N-7) | 75 | 17 |  |  | 
CC(C)C[C@H]1C(=O)N[C@@H](C(C)C)C(=O)N[C@H](C(=O)N(C)[C@@H](Cc2ccccc2)C(=O)N[C@@H](C)C(=O)N2CCCCC2)CC(=O)N[C@@H](C)C(=O)N(C)[C@@H](Cc2ccccc2)C(=O)N(C)[C@@H](C)C(=O)N(C)[C@@H](CC(C)C)C(=O)N[C@@H]([C@@H](C)O)C(=O)N(C)CC(=O)N1C [DP-196] (A[NMeF][NMeA][NMeL]T[Sar][NMeL]VD[NMeF]A-Piperidide; lactam N-9) | 65 | 29 |  |  | 
CC(C)C[C@@H]1NC(=O)[C@H](Cc2ccccc2)N(C)C(=O)[C@H](CC(C)C)N(C)C(=O)[C@@H](C)N(C)C(=O)C[C@@H](C(=O)N2CCCCC2)NC(=O)[C@H](CC(C)C)N(C)C(=O)[C@H](Cc2ccccc2)N(C)C(=O)[C@H]([C@@H](C)O)NC(=O)[C@H](Cc2ccccc2)N(C)C1=O [DP-441] ([dNMeA][NMeL][NMeF]L[NMeF]T[NMeF][NMeL]D-Piperidide; lactam N-9) | 123 | 37 |  |  | 
CC[C@H](C)[C@@H]1NC(=O)[C@H](C(C)C)N(C)C(=O)[C@H](C)N(C)C(=O)[C@H]([C@@H](C)O)NC(=O)[C@@H](C)N(C)C(=O)C[C@@H](C(=O)N2CCCCC2)NC(=O)[C@H](C)NC(=O)[C@H](Cc2ccccc2)N(C)C(=O)CN(C)C(=O)[C@H](CC(C)C)N(C)C1=O [DP-485] ([dNMeA]T[NMeA][NMeV]I[NMeL][Sar][NMeF]AD-Piperidide; lactam N-10) | 45 | 5.9 |  |  | 
CC(C)C[C@H]1C(=O)N[C@H](C(=O)N2CCCCC2)CC(=O)N(C)[C@@H](C)C(=O)N(C)[C@@H](Cc2ccccc2)C(=O)N(C)[C@@H](CC(C)C)C(=O)N[C@@H]([C@@H](C)O)C(=O)N(C)[C@@H](C)C(=O)N1C [DP-678] ([NMeA][NMeF][NMeL]T[NMeA][NMeL]D-Piperidide; lactam N-7) | 284 | 26 |  |  | 
CCCN1CC(=O)N(C)[C@@H](Cc2ccccc2)C(=O)N[C@@H](C)C(=O)N(C)[C@@H](Cc2ccccc2)C(=O)N(C)[C@@H](CC(C)C)C(=O)N(C)[C@@H]([C@@H](C)CC)C(=O)N(C)[C@@H](CC(C)C)C(=O)N[C@H](C(=O)N2CCCCC2)CC(=O)N(C)CC(=O)N[C@@H](CC(C)C)C(=O)N[C@@H]([C@@H](C)O)C1=O [DP-545] ([Sar]LT[NPrGly][NMeF]A[NMeF][NMeL][NMeI][NMeL]D-Piperidide; lactam N-11) | 36 | 40 |  |  | 
